Reference: BindingDB's records for doi:10.1021/jm00055a007 (Abbott Laboratories, 1993)
Square brackets hold non-standard residues; d marks the D form. Peptide text beside a SMILES is read from it. 1Nal = N[C@@H](Cc1cccc2ccccc12)C(=O)O; pGlu = O=C1CC[C@@H](C(=O)O)N1; NMeS = CN[C@@H](CO)C(=O)O

Molecular target: Gonadotropin-releasing hormone receptor (Rattus norvegicus) (UniProt P30969)
Sequence (P30969 whole entry, looked up): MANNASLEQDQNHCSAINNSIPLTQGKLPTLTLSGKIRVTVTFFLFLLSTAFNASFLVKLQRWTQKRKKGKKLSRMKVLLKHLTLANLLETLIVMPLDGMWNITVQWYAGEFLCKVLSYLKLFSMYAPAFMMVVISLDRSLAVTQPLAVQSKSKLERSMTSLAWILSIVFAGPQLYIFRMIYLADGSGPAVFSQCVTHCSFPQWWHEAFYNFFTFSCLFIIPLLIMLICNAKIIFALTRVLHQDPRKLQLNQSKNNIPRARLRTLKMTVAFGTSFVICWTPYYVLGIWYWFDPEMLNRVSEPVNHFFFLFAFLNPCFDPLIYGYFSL

Structure (SMILES)	Ki
CC(C)C[C@H](NC(=O)CNC(=O)[C@H](Cc1ccc(O)cc1)NC(=O)[C@H](CO)NC(=O)[C@H](Cc1c[nH]c2ccccc12)NC(=O)[C@H](Cc1cnc[nH]1)NC(=O)[C@@H]1CCC(=O)N1)C(=O)N[C@@H](CCCN=C(N)N)C(=O)N1CCC[C@H]1C(=O)NCC(=O)O [CAS_35263-73-1]	1260 pM
CCNC(=O)[C@@H]1CCCN1C(=O)[C@H](CCCN=C(N)N)NC(=O)[C@H](CC(C)C)NC(=O)[C@@H](Cc1c[nH]c2ccccc12)NC(=O)[C@H](Cc1ccc(O)cc1)NC(=O)[C@H](CO)NC(=O)[C@H](Cc1c[nH]c2ccccc12)NC(=O)[C@H](Cc1cnc[nH]1)N(C)C(=O)[C@@H]1CCC(=O)N1 [deslorelin 2NMeHis]	1410 pM
CCNC(=O)[C@@H]1CCCN1C(=O)[C@H](CCCN=C(N)N)NC(=O)[C@H](CC(C)C)NC(=O)[C@@H](Cc1c[nH]c2ccccc12)NC(=O)[C@H](Cc1ccc(O)cc1)NC(=O)[C@H](CO)NC(=O)[C@H](Cc1cccc2ccccc12)N(C)C(=O)[C@H](Cc1c[nH]cn1)NC(=O)[C@@H]1CCC(=O)N1 [deslorelin 3NMe1Nal]	1000 pM
CCNC(=O)[C@@H]1CCCN1C(=O)[C@H](CCCN=C(N)N)NC(=O)[C@H](CC(C)C)NC(=O)[C@@H](CC(C)C)NC(=O)[C@H](Cc1ccc(O)cc1)NC(=O)[C@H](CO)NC(=O)[C@H](Cc1c[nH]c2ccccc12)NC(=O)[C@H](Cc1cnc[nH]1)N(C)C(=O)[C@@H]1CCC(=O)N1 [leuprolide 2 NMeHis]	33100 pM
CCNC(=O)[C@@H]1CCCN1C(=O)[C@H](CCCN=C(N)N)NC(=O)[C@H](CC(C)C)NC(=O)[C@@H](CC(C)C)NC(=O)[C@H](Cc1ccc(O)cc1)NC(=O)[C@H](CO)NC(=O)[C@H](Cc1c[nH]c2ccccc12)NC(=O)[C@H](Cc1ccccc1)NC(=O)[C@@H]1CCC(=O)N1 [leuprolide 2 Phe] ([pGlu]FWSY[dL]LRP-NHEt)	2190 pM
CCNC(=O)[C@@H]1CCCN1C(=O)[C@H](CCCN=C(N)N)NC(=O)[C@H](CC(C)C)NC(=O)[C@@H](CC(C)C)NC(=O)[C@H](Cc1ccc(O)cc1)NC(=O)[C@H](CO)NC(=O)[C@H](Cc1c[nH]c2ccccc12)NC(=O)[C@H](Cc1ccccc1)N(C)C(=O)[C@@H]1CCC(=O)N1 [leuprolide 2NMePhe]	12000 pM
CCNC(=O)[C@@H]1CCCN1C(=O)[C@H](CCCN=C(N)N)NC(=O)[C@H](CC(C)C)NC(=O)[C@@H](CC(C)C)NC(=O)[C@H](Cc1ccc(O)cc1)NC(=O)[C@H](CO)NC(=O)[C@H](Cc1cccc2ccccc12)N(C)C(=O)[C@H](Cc1c[nH]cn1)NC(=O)[C@@H]1CCC(=O)N1 [leuprolide 3NMe1Nal]	3240 pM
CCNC(=O)[C@@H]1CCCN1C(=O)[C@H](CCCN=C(N)N)NC(=O)[C@H](CC(C)C)NC(=O)[C@@H](CC(C)C)NC(=O)[C@H](Cc1ccc(O)cc1)NC(=O)[C@H](CO)N(C)C(=O)[C@H](Cc1c[nH]c2ccccc12)NC(=O)[C@H](Cc1c[nH]cn1)NC(=O)[C@@H]1CCC(=O)N1 [leuprolide 4NMeSer] ([pGlu]HW[NMeS]Y[dL]LRP-NHEt)	1410 pM
CCNC(=O)[C@@H]1CCCN1C(=O)[C@H](CCCN=C(N)N)NC(=O)[C@H](CC(C)C)NC(=O)[C@@H](CC(C)C)N(C)C(=O)[C@H](Cc1ccc(O)cc1)NC(=O)[C@H](CO)NC(=O)[C@H](Cc1c[nH]c2ccccc12)NC(=O)[C@H](Cc1cnc[nH]1)NC(=O)[C@@H]1CCC(=O)N1 [leuprolide 6NMeDLeu]	3800 pM
CCNC(=O)[C@@H]1CCCN1C(=O)[C@H](CCCN=C(N)N)N(C)C(=O)[C@H](CC(C)C)NC(=O)[C@@H](CC(C)C)NC(=O)[C@H](Cc1ccc(O)cc1)NC(=O)[C@H](CO)NC(=O)[C@H](Cc1c[nH]c2ccccc12)NC(=O)[C@H](Cc1c[nH]cn1)NC(=O)[C@@H]1CCC(=O)N1 [leuprolide 8NMeArg]	347000 pM
CC(C)C[C@H](NC(=O)[C@@H](Cc1ccc2ccccc2c1)NC(=O)[C@H](Cc1ccc(O)cc1)NC(=O)[C@H](CO)NC(=O)[C@H](Cc1c[nH]c2ccccc12)NC(=O)[C@H](Cc1cnc[nH]1)N(C)C(=O)[C@@H]1CCC(=O)N1)C(=O)N[C@@H](CCCN=C(N)N)C(=O)N1CCC[C@H]1C(=O)NCC(N)=O [nafarelin 2NMeHis]	1410 pM
CC(C)C[C@H](NC(=O)[C@@H](Cc1ccc2ccccc2c1)NC(=O)[C@H](Cc1ccc(O)cc1)NC(=O)[C@H](CO)NC(=O)[C@H](Cc1cccc2ccccc12)N(C)C(=O)[C@H](Cc1cnc[nH]1)NC(=O)[C@@H]1CCC(=O)N1)C(=O)N[C@@H](CCCN=C(N)N)C(=O)N1CCC[C@H]1C(=O)NCC(N)=O [nafarelin 3NMe1Nal]	740 pM
CC(C)C[C@H](NC(=O)[C@@H](Cc1ccc2ccccc2c1)N(C)C(=O)[C@H](Cc1ccc(O)cc1)NC(=O)[C@H](CO)NC(=O)[C@H](Cc1c[nH]c2ccccc12)NC(=O)[C@H](Cc1c[nH]cn1)NC(=O)[C@@H]1CCC(=O)N1)C(=O)N[C@@H](CCCN=C(N)N)C(=O)N1CCC[C@H]1C(=O)NCC(N)=O [nafarelin 6NMe2Nal]	2690 pM
CC(C)C[C@H](NC(=O)[C@@H](Cc1ccc2ccccc2c1)NC(=O)[C@H](Cc1ccc(O)cc1)NC(=O)[C@H](CO)NC(=O)[C@H](Cc1c[nH]c2ccccc12)NC(=O)[C@H](Cc1c[nH]cn1)NC(=O)[C@@H]1CCC(=O)N1)C(=O)N(C)[C@@H](CCCN=C(N)N)C(=O)N1CCC[C@H]1C(=O)NCC(N)=O [nafarelin 8NMeArg]	28200 pM

The next compounds have a lower Ki than those just listed; values first:

Ki	Structure (SMILES)
320 pM	CC(C)C[C@H](NC(=O)[C@@H](Cc1c[nH]c2ccccc12)NC(=O)[C@H](Cc1ccc(O)cc1)NC(=O)[C@H](CO)NC(=O)[C@H](Cc1c[nH]c2ccccc12)NC(=O)[C@H](Cc1c[nH]cn1)NC(=O)[C@@H]1CCC(=O)N1)C(=O)N[C@@H](CCCN=C(N)N)C(=O)N1CCC[C@H]1C(=O)N(C)CC(N)=O [deslorelin 10SarNH2]
310 pM	CCNC(=O)[C@@H]1CCCN1C(=O)[C@H](CCCN=C(N)N)N(C)C(=O)[C@H](CC(C)C)NC(=O)[C@@H](Cc1c[nH]c2ccccc12)NC(=O)[C@H](Cc1ccc(O)cc1)NC(=O)[C@H](CO)NC(=O)[C@H](Cc1c[nH]c2ccccc12)NC(=O)[C@H](Cc1cnc[nH]1)NC(=O)[C@@H]1CCC(=O)N1 [deslorelin 8NMeArg]
300 pM	CC(C)C[C@H](NC(=O)[C@@H](Cc1ccc2ccccc2c1)NC(=O)[C@H](Cc1ccc(O)cc1)NC(=O)[C@H](CO)NC(=O)[C@H](Cc1c[nH]c2ccccc12)NC(=O)[C@H](Cc1ccccc1)N(C)C(=O)[C@@H]1CCC(=O)N1)C(=O)N[C@@H](CCCN=C(N)N)C(=O)N1CCC[C@H]1C(=O)NCC(N)=O [nafarelin 2NMePhe]
160 pM	CCNC(=O)[C@@H]1CCCN1C(=O)[C@H](CCCN=C(N)N)NC(=O)[C@H](CC(C)C)N(C)C(=O)[C@@H](CC(C)C)NC(=O)[C@H](Cc1ccc(O)cc1)NC(=O)[C@H](CO)NC(=O)[C@H](Cc1c[nH]c2ccccc12)NC(=O)[C@H](Cc1c[nH]cn1)NC(=O)[C@@H]1CCC(=O)N1 [leuprolide 7NMeLeu]
90 pM	CCNC(=O)[C@@H]1CCCN1C(=O)[C@H](CCCN=C(N)N)NC(=O)[C@H](CC(C)C)NC(=O)[C@@H](Cc1c[nH]c2ccccc12)NC(=O)[C@H](Cc1ccc(O)cc1)N(C)C(=O)[C@H](CO)NC(=O)[C@H](Cc1c[nH]c2ccccc12)NC(=O)[C@H](Cc1c[nH]cn1)NC(=O)[C@@H]1CCC(=O)N1 [deslorelin 5NMeTyr]
90 pM	CCNC(=O)[C@@H]1CCCN1C(=O)[C@H](CCCN=C(N)N)NC(=O)[C@H](CC(C)C)NC(=O)[C@@H](CC(C)C)NC(=O)[C@H](Cc1ccc(O)cc1)NC(=O)[C@H](CO)NC(=O)[C@H](Cc1cccc2ccccc12)NC(=O)[C@H](Cc1c[nH]cn1)NC(=O)[C@@H]1CCC(=O)N1 [leuprolide 31Nal] ([pGlu]H[1Nal]SY[dL]LRP-NHEt)
70 pM	CC(C)C[C@H](NC(=O)[C@@H](Cc1ccc2ccccc2c1)NC(=O)[C@H](Cc1ccc(O)cc1)NC(=O)[C@H](CO)NC(=O)[C@H](Cc1c[nH]c2ccccc12)NC(=O)[C@H](Cc1ccccc1)NC(=O)[C@@H]1CCC(=O)N1)C(=O)N[C@@H](CCCN=C(N)N)C(=O)N1CCC[C@H]1C(=O)NCC(N)=O [nafarelin 2Phe]
60 pM	CCNC(=O)[C@@H]1CCCN1C(=O)[C@H](CCCN=C(N)N)NC(=O)[C@H](CC(C)C)N(C)C(=O)[C@@H](Cc1c[nH]c2ccccc12)NC(=O)[C@H](Cc1ccc(O)cc1)NC(=O)[C@H](CO)NC(=O)[C@H](Cc1c[nH]c2ccccc12)NC(=O)[C@H](Cc1cnc[nH]1)NC(=O)[C@@H]1CCC(=O)N1 [deslorelin 7NMeLeu]
40 pM	CC(C)C[C@H](NC(=O)[C@@H](Cc1ccc2ccccc2c1)NC(=O)[C@H](Cc1ccc(O)cc1)NC(=O)[C@H](CO)N(C)C(=O)[C@H](Cc1c[nH]c2ccccc12)NC(=O)[C@H](Cc1c[nH]cn1)NC(=O)[C@@H]1CCC(=O)N1)C(=O)N[C@@H](CCCN=C(N)N)C(=O)N1CCC[C@H]1C(=O)NCC(N)=O [nafarelin 4NMeSer]
30 pM	CC(C)C[C@H](NC(=O)[C@@H](Cc1ccc2ccccc2c1)NC(=O)[C@H](Cc1ccc(O)cc1)N(C)C(=O)[C@H](CO)NC(=O)[C@H](Cc1c[nH]c2ccccc12)NC(=O)[C@H](Cc1c[nH]cn1)NC(=O)[C@@H]1CCC(=O)N1)C(=O)N[C@@H](CCCN=C(N)N)C(=O)N1CCC[C@H]1C(=O)NCC(N)=O [nafarelin 5NMeTyr]
30 pM	CC(C)C[C@@H](C(=O)N[C@@H](CCCN=C(N)N)C(=O)N1CCC[C@H]1C(=O)NCC(N)=O)N(C)C(=O)[C@@H](Cc1ccc2ccccc2c1)NC(=O)[C@H](Cc1ccc(O)cc1)NC(=O)[C@H](CO)NC(=O)[C@H](Cc1c[nH]c2ccccc12)NC(=O)[C@H](Cc1c[nH]cn1)NC(=O)[C@@H]1CCC(=O)N1 [nafarelin 7NMeLeu]
20 pM	CCNC(=O)[C@@H]1CCCN1C(=O)[C@H](CCCN=C(N)N)NC(=O)[C@H](CC(C)C)NC(=O)[C@@H](Cc1c[nH]c2ccccc12)NC(=O)[C@H](Cc1ccc(O)cc1)NC(=O)[C@H](CO)NC(=O)[C@H](Cc1cccc2ccccc12)NC(=O)[C@H](Cc1cnc[nH]1)NC(=O)[C@@H]1CCC(=O)N1 [deslorelin 31Nal]
10 pM	CCNC(=O)[C@@H]1CCCN1C(=O)[C@H](CCCN=C(N)N)NC(=O)[C@H](CC(C)C)NC(=O)[C@@H](Cc1c[nH]c2ccccc12)NC(=O)[C@H](Cc1ccc(O)cc1)NC(=O)[C@H](CO)NC(=O)[C@H](Cc1c[nH]c2ccccc12)NC(=O)[C@H](Cc1cnc[nH]1)NC(=O)[C@@H]1CCC(=O)N1 [deslorelin]
